For one assay, the system named is NL 4-3. The experiment in a line: microbe, parasite or virus in culture. Format: cell-based, HIV-1. The following applies: for fold change: fold change in EC50. As for the experimental part: (§1) The integrase encoding sequence was amplified from either wildtype HIV-1 (IIIB) or NL4.3 virus, or HXB2D site-directed mutant viruses containing mutations in integrase (such as T66I, S153Y, M154I, or combinations thereof) (Hazuda et al., Science 2000, 287, 646-650), or patient samples. Starting from RNA, extracted from virus supernatant or plasma using the QIAamp® viral RNA extraction kit (Qiagen), cDNA was synthesized by reverse transcription (Expand TM reverse transcriptase, 30 min at 42°C) with the primer 3'EGINT10 (SEQ ID NO 11), followed by a nested PCR. The outer PCR was performed with the primers 5'EGINT1 (SEQ ID NO 1) and 3'EGINT10 (SEQ ID NO 11) (ΔR-IN-vif construct) or 5'EGINT3 (SEQ ID NO 4) and 3'EGINT10 (SEQ ID NO 11) (ΔIN construct) (Expand™ High Fidelity PCR system), and 5 µl of the outer product was used for an inner PCR with primers 5'EGINT2 (SEQ ID NO 3) and 3'EGINT11 (SEQ ID NO 12) (ΔR-IN-vif construct) or 5'EGINT4 (SEQ ID NO 5) and 3'EGINT6 (SEQ ID NO 7) (ΔIN construct). In a second protocol the outer primers were identical as described above, the inner primers are 5'EGINT5 (SEQ ID NO 6) and 3'EGINT6 (SEQ ID NO 7). The amplicons can be used for genotyping and phenotyping. Cycling conditions for both PCRs are denaturation for 3 min at 95°C, followed by 30 cycles of 1 min 90°C, 30 sec 55°C, and 2 min 72°C. A final extension was performed at 72°C for 10 min. For recombination, PCR products are purified using the QiaQuick® 96 PCR BioRobot kit (Qiagen), according to the manufacturer's protocol. If the protocol starts from DNA containing the HIV material such as proviral DNA, the reverse transcriptase step is not needed. The nested approach is also not needed when starting from proviral DNA. The obtained amplicons were sequenced using the primers: In_seq1F (SEQ ID NO 17), In_seq2F (SEQ ID NO 18), In_seq3F (SEQ ID NO 19), IN_seq1R (SEQ ID NO 20), IN_seq2R (SEQ ID NO 21), and IN_seq3R (SEQ ID NO 22).
(§2) A ΔR-IN-vif or ΔIN deletion construct was generated by site-directed mutagenesis on the template pSV40HXB2D with the primers MUT-IN1 (SEQ ID NO 13) and MUT-IN2 (ΔR-IN-vif construct) (SEQ ID NO 14) or MUT-IN3 (SEQ ID NO 15) and MUT-IN4 (SEQ ID NO 16) (ΔIN construct) (protocol Site-directed mutagenesis kit, Stratagene). After DpnI digestion for removal of the methylated template DNA, the construct was digested with SmaI and ligated to circulize the plasmid. The plasmid was transformed into competent cells such as Top10 cells, and colonies were screened for the presence of the deletion construct. The IN-deletion construct was checked by sequence analysis with primers 5'EGINT1 (SEQ ID NO 1) or […] and 3'EGINT10 (SEQ ID NO 11) or 3'EGINT11 (SEQ ID NO 12). For use in recombination experiments, large-scale plasmid DNA preparations were linearized by SmaI digestion and recombined with PCR amplified integrase genes from wild type, mutant, or patient viruses. The plasmid containing the integrase deletion (ΔIN) has been deposited pSV40HXB2D-ΔIN. The sequence of said plasmid is 14377 nucleotides long. The ΔR-IN-vif deletion construct is 13975 nucleotides long. The pSV40HXB2D-ΔIN was deposited at the Belgian Coordinated Collections of Micro-Organisms located at the Universiteit Gent - Laboratorium voor Moleculaire Biologie on August 5, 2002 and the accession number is LMBP 4574.
(§3) Recombinant virus was produced by co-transfection by electroporation of the SmaI-linearized IN-deletion construct and the integrase amplicon into MT4 cells or MT4 cells equipped with an LTR driven reporter gene construct. Production of recombinant virus was evaluated by scoring the cytopathogenic effect (CPE) that is induced by HIV-infection of MT4 cells or by the LTR-driven reporter signal induced by HIV infection in MT4 reporter cells.

The test system of another assay is WT III B. The assay is described as follows: microbe, parasite or virus in culture. Format: cell-based, HIV-1. The following applies: for fold change: fold change in EC50. As for the experimental part:
as §1, §2, §3

Where [1] appears, read: Human immunodeficiency virus 1, AVE 1, NL 4-3, primer set 3.
[2] abbreviates: Human immunodeficiency virus 1, NL43, AVE 4, NL4-3, primer set 4.
The mark [3] stands for this setting: Human immunodeficiency virus 1, AVE 3, WT III B, primer set 3.
Where [4] appears, read: Human immunodeficiency virus 1, AVE 5, WT III B, primer set 4.

Each structure is given as a SMILES string. Like-named read-outs stand apart in the source and are kept apart here.

Regarding `c1cc(CN2CCCNCCNCCCNCC2)ccc1CN1CCCNCCNCCCNCC1` [AMD3100], the fold change in the assay on NL 4-3 (AVE 1, NL 4-3, primer set 3) is listed as 0,9; in the assay with NL 4-3 (AVE 4, NL4-3, primer set 4) it was 1,1; in the assay with WT III B (AVE 3, WT III B, primer set 3), 0,8; in the assay on WT III B (AVE 5, WT III B, primer set 4), 0,8. Moreover, the EC50 in the assay on NL 4-3 (setting [1]) was determined as 50.6 nM; in the assay on NL 4-3 (setting [2]), 63 nM; in the assay on WT III B (setting [3]), 44.2 nM; with WT III B (setting [4]), 41.7 nM.
As for `CC(C)CN(C[C@@H](O)[C@H](Cc1ccccc1)NC(=O)O[C@H]1CCOC1)S(=O)(=O)c1ccc(N)cc1` [APV, Amprenavir], the fold change is recorded as 0,6 with NL 4-3 (AVE 1, NL 4-3, primer set 3); 1,3 in the assay on NL 4-3 (AVE 4, NL4-3, primer set 4); 0,5 in the assay on WT III B (AVE 3, WT III B, primer set 3); 0,7 in the assay on WT III B (AVE 5, WT III B, primer set 4). Besides, the EC50 was 49.6 nM in the assay on NL 4-3 (setting [1]), 113 nM in the assay on NL 4-3 (setting [2]), 46 nM in the assay on WT III B (setting [3]) and 60.6 nM in the assay with WT III B (setting [4]).
As to `O=C(O)C1=CC(=C(c2ccc(O)c(C(=O)O)c2)c2ccc(O)c(C(=O)O)c2)C=CC1=O` [ATA], the fold change with NL 4-3 (AVE 1, NL 4-3, primer set 3) was 0,9; with NL 4-3 (AVE 4, NL4-3, primer set 4), 1,2; in the assay with WT III B (AVE 3, WT III B, primer set 3), 0,4; in the assay with WT III B (AVE 5, WT III B, primer set 4), 0,4. Further, the EC50 in the assay with NL 4-3 (AVE 1, NL 4-3, primer set 3, read-out: EC 50) turned out to be 1960 nM; in the assay with NL 4-3 (AVE 4, NL4-3, primer set 4, read-out: EC 50) it was 2510 nM; in the assay with WT III B (AVE 3, WT III B, primer set 3, read-out: EC 50), 730 nM; in the assay on WT III B (AVE 5, WT III B, primer set 4, read-out: EC 50), 861 nM.
`Cc1cn([C@H]2C[C@H](N=[N+]=[N-])[C@@H](CO)O2)c(=O)[nH]c1=O` [AZT, Zidovudine]: the fold change in the assay on NL 4-3 (AVE 1, NL 4-3, primer set 3) is listed as 0,9; in the assay with NL 4-3 (AVE 4, NL4-3, primer set 4), 1,1; in the assay with WT III B (AVE 5, WT III B, primer set 4) it was 0,9. Besides, the EC50 is 143 nM in the assay with NL 4-3 (setting [1]), 182 nM in the assay with NL 4-3 (setting [2]) and 144 nM in the assay with WT III B (setting [4]).
As to `Cc1cc(C#N)cc(C)c1Oc1nc(Nc2ccc(C#N)cc2)nc(N)c1Br` [Compound 1, 4-[[6-amino-5-bromo-2-[(4-cyanophenyl)amino]-4-pyrimidinyl]oxy]-3,5-dimethyl-benzonitrile], the EC50 with NL 4-3 (AVE 1, NL 4-3, primer set 3) was determined as 1 nM; with NL 4-3 (setting [2]), 2.3 nM; in the assay with WT III B (AVE 3, WT III B, primer set 3), 0.9 nM; in the assay with WT III B (AVE 5, WT III B, primer set 4) it was 1.2 nM. The fold change is reported as 1,0 with NL 4-3 (AVE 1, NL 4-3, primer set 3); 2,3 with NL 4-3 (AVE 4, NL4-3, primer set 4); 0,9 in the assay on WT III B (AVE 3, WT III B, primer set 3); 1,2 with WT III B (AVE 5, WT III B, primer set 4).
On to `Cc1cc(C#N)cc(C)c1Oc1nc(Nc2ccc(C#N)cc2)nc(N)c1Br` [Compound 2, 4-[[6-amino-5-bromo-2-[(4-cyanophenyl)amino]-4-pyrimidinyl]oxy]-3,5-dimethyl-Benzonitrile], for which the EC50 in the assay with NL 4-3 (AVE 1, NL 4-3, primer set 3) came to 2.6 nM; in the assay on NL 4-3 (AVE 4, NL4-3, primer set 4), 2.8 nM; in the assay with WT III B (AVE 3, WT III B, primer set 3) it was 2.8 nM; in the assay on WT III B (AVE 5, WT III B, primer set 4), 2.9 nM. The fold change in the assay with NL 4-3 (AVE 1, NL 4-3, primer set 3) is reported as 0,8; with NL 4-3 (AVE 4, NL4-3, primer set 4) it was 0,9; in the assay with WT III B (AVE 3, WT III B, primer set 3), 0,9; in the assay with WT III B (AVE 5, WT III B, primer set 4), 0,9.
On to `Nc1ccn([C@@H]2CS[C@H](CO)O2)c(=O)n1` [Compound 3TC, Lamivudine], for which the fold change with NL 4-3 (AVE 1, NL 4-3, primer set 3) is 0,6; in the assay with NL 4-3 (AVE 4, NL4-3, primer set 4), 2,0; in the assay on WT III B (AVE 3, WT III B, primer set 3), 0,3; in the assay on WT III B (AVE 5, WT III B, primer set 4) it was 1,2. Further, the EC50 in the assay with NL 4-3 (setting [1]) came to 820 nM; with NL 4-3 (setting [2]), 2730 nM; with WT III B (setting [3]), 384 nM; in the assay with WT III B (setting [4]) it was 1690 nM.
Regarding `O=c1[nH]cnc2c1ncn2[C@H]1CC[C@@H](CO)O1` [DDI, Didanosine], the fold change with NL 4-3 (AVE 1, NL 4-3, primer set 3) was 0,7; with NL 4-3 (AVE 4, NL4-3, primer set 4) it was 1,6; in the assay on WT III B (AVE 3, WT III B, primer set 3) it was 0,5; in the assay with WT III B (AVE 5, WT III B, primer set 4), 1,6. The EC50 in the assay with NL 4-3 (setting [1]) turned out to be 3360 nM; in the assay on NL 4-3 (setting [2]) it was 7890 nM; with WT III B (setting [3]), 2540 nM; in the assay on WT III B (setting [4]) it was 7500 nM.
On to `CC(C)(C)NC(=O)[C@@H]1CN(Cc2cccnc2)CCN1C[C@@H](O)C[C@@H](Cc1ccccc1)C(=O)N[C@H]1c2ccccc2C[C@H]1O` [IDV, Indinavir], for which the fold change in the assay with NL 4-3 (AVE 1, NL 4-3, primer set 3) is reported as 0,7; with NL 4-3 (AVE 4, NL4-3, primer set 4), 1,2; in the assay with WT III B (AVE 3, WT III B, primer set 3), 0,4; in the assay on WT III B (AVE 5, WT III B, primer set 4), 0,9. Further, the EC50 was found to be 31.5 nM in the assay on NL 4-3 (setting [1]), 50.7 nM with NL 4-3 (setting [2]), 18.4 nM in the assay on WT III B (setting [3]) and 41.3 nM in the assay on WT III B (setting [4]).

For the origin of these results see patent publication EP1285971B1, “Methods for the phenotypic and genotypic assessment of the drug sensitivity of HIV integrase variants” (Tibotec Pharmaceuticals Ltd., priority 2001, dated 2003).
